Experimental data: patent US20260001874A1 (priority 2022, published 2026)

Tests used:
[1] = in vitro; conditions: rabbit
[2] = test system: Shiga toxin Stx-2; type: cell-based, E. coli; conditions: read-out: EC50 in vitro Stx2
[3] = in vitro; conditions: human
[4] = test system: Shiga toxin Stx-1; type: cell-based, E. coli; conditions: read-out: EC50 in vitro Stx1
[5] = test system: VacV-ANCHOR; experiment: microbe, parasite or virus in culture; type: cell-based, cowpox virus; conditions: Orthopoxvirus vaccinia, HeLa, read-out: EC50 in vitro VACV
[6] = Pharmacokinetics in Lipiodol/castor oil (formulation B) or DMSO/Lipiodol/castor oil (formulation C), oral or subcutaneous; conditions: 33 mg/kg oral or subcutaneous, Lipiodol/castor oil 30%/70%
[7] = test system: myxomatosis-derived virus MYXV-T1-ANCHOR; experiment: organism not typed; type: cell-based; conditions: RK-13, read-out: EC50 in vitro MYXV
[8] = mouse, in vivo
[9] = Incubation with hepatic mouse microsomes, LC-MS-MS; conditions: 5 μM, 45 minutes, 37° C.
[10] = test system: RK13 cells; conditions: rabbit
[11] = test system: HeLa cells; conditions: human

Work on `Cc1nc(-c2ccc(C3N(C)c4ccc(F)cc4C(=O)N3c3c(O)cccc3O)s2)cs1` (stereo not shown) [Compound 1, 3-(2,6-dihydroxyphenyl)-6-fluoro-1-methyl-2-(5-(2-methylthiazol-4-yl)thiophen-2-yl)-2,3-dihydroquinazolin-4(1H)-one] yielded a CC50 [1] of 18900 nM, an EC50 [2] of 17 nM and a CC50 [3] of 57700 nM. The EC50 [4] was 16 nM, the EC50 [5] was 0.78 nM and the “pharmacokinetic properties (plasma exposure) compared with the other molecules tested” value [6] was “best pharmacokinetic properties of all of the molecules tested”. The EC50 [7] was 6 nM, the concentration in brain ([8]; female, BALB/c) was 1700 nM and the concentration in colon ([8]; female, BALB/c) was 800 nM. It also gave a concentration in kidneys ([8]; female, BALB/c) of 400 nM, a concentration in liver ([8]; female, BALB/c) of 600 nM and a concentration in lungs ([8]; female, BALB/c) of 500 nM. For the same compound, the concentration in plasma ([8]; female, BALB/c) was 700 nM, the “concentration in small intestine” value ([8]; female, BALB/c) was 2100 nM and the “concentration in brain (metabolite section)” value ([8]; female, BALB/c, sc, 33 mg/kg) was 1500 nM. For the same compound, the “concentration in colon (metabolite section)” value ([8]; female, BALB/c, sc, 33 mg/kg) was < 200 nM, the “concentration in kidney (metabolite section)” value ([8]; female, BALB/c, sc, 33 mg/kg) was 500 nM and the “concentration in liver (metabolite section)” value ([8]; female, BALB/c, sc, 33 mg/kg) was 1000 nM. For the same compound, the “concentration in lungs (metabolite section)” value ([8]; female, BALB/c, sc, 33 mg/kg) was < 200 nM and the “metabolism by hepatic microsomes in the presence of NADPH” value [9] was “slowed metabolism relative to the other compounds”.

With `Cc1nc(-c2ccc(C3N(C)c4ccc(F)cc4C(=O)N3c3ccccc3)s2)cs1` (stereo not shown) [Compound A] the EC50 [2] was 60 nM, the CC50 [10] was 3350 nM and the CC50 [3] was > 50000 nM. The EC50 [4] was 52 nM, the EC50 [5] was 37.8 nM and the EC50 [7] was 74.5 nM.

In the case of `Cc1nc(-c2ccc(C3N(C)c4ccc(F)cc4C(=O)N3c3ccccc3O)s2)cs1` (stereo not shown) [Compound B], the CC50 [1] is reported as 14000 nM, the EC50 [2] is reported as 22 nM and the CC50 [3] is reported as 39900 nM. For the same compound, the EC50 [4] was 25 nM, the EC50 [5] was 3.6 nM and the EC50 [7] was 19 nM.

Compound `Cc1nc(-c2ccc(C3N(C)c4ccc(F)cc4C(=O)N3c3cccc(O)c3)s2)cs1` (stereo not shown) [Compound C] has a CC50 [1] of 3510 nM, an EC50 [2] of 71 nM and a CC50 [3] of 29200 nM. The EC50 [4] was 62 nM, the EC50 [5] was 32.2 nM and the EC50 [7] was 85.8 nM.

In the case of `Cc1nc(-c2ccc(C3N(C)c4ccc(F)cc4C(=O)N3c3ccc(O)cc3)s2)cs1` (stereo not shown) [Compound D], the CC50 [10] is reported as 12900 nM, the CC50 [11] is reported as 20400 nM and the EC50 [4] is reported as 483 nM. It also gave an EC50 [5] of 628 nM and an EC50 [7] of 5800 nM.

Compound `Cc1nc(-c2ccc(C3N(C)c4ccc(F)cc4C(=O)N3c3cccc(O)c3O)s2)cs1` (stereo not shown) [Compound E] has a CC50 [1] of 1300 nM, an EC50 [2] of 35 nM and a CC50 [3] of 8500 nM. It also gave an EC50 [4] of 32 nM, an EC50 [5] of 4.8 nM and an EC50 [7] of 11.5 nM.

`Cc1nc(-c2ccc(C3N(C)c4ccc(F)cc4C(=O)N3c3ccc(O)cc3O)s2)cs1` (stereo not shown) [Compound F] showed a CC50 [3] of 3600 nM, an EC50 [4] of 1500 nM and an EC50 [5] of 27.3 nM.

`Cc1nc(-c2ccc(C3N(C)c4ccc(F)cc4C(=O)N3c3cc(O)ccc3O)s2)cs1` (stereo not shown) [Compound G] gave a CC50 [1] of 12600 nM, a CC50 [3] of 36300 nM and an EC50 [4] of 642 nM. For the same compound, the EC50 [5] was 19 nM and the EC50 [7] was 237 nM.

With `Cc1nc(-c2ccc(C3N(C)c4ccc(F)cc4C(=O)N3c3ccc(O)c(O)c3)s2)cs1` (stereo not shown) [Compound H] the EC50 [4] was 2500 nM.

For `Cc1nc(-c2ccc(C3N(C)c4ccc(F)cc4C(=O)N3c3cc(O)cc(O)c3)s2)cs1` (stereo not shown) [Compound I], the CC50 [1] was 20100 nM, the CC50 [3] was 25900 nM and the EC50 [4] was > 30000 nM. For the same compound, the EC50 [5] was 7300 nM and the EC50 [7] was 9750 nM.

With `Cc1nc(-c2ccc(C3N(C)c4ccc(F)cc4C(=O)N3c3ccccc3N)s2)cs1` (stereo not shown) [Compound J] the EC50 [2] was 27 nM, the CC50 [10] was 7460 nM and the CC50 [3] was > 50000 nM. The EC50 [4] was 21 nM, the EC50 [5] was 1 nM and the EC50 [7] was 1.44 nM.

In the case of `CN1c2ccc(F)cc2C(=O)N(c2c(O)cccc2O)C1c1ccc(-c2csc(CO)n2)s1` (stereo not shown) [metabolite], the “presence in kidney, liver, colon, lungs and brain after treatment with compound 1” value ([8]; sc, 33 mg/kg) is reported as “identified in vivo”.
